The source of these data is patent US11691992B2 (Anacor Pharmaceuticals, Inc., priority 2017, dated 2023).

What all share (assay type): cell-based
Experiment [1] relates to promastigote forms of L. major. In words: Leishmania major promastigote growth inhibition assay (Alamar Blue). The following applies: promastigotes, 44 hours + 4 hours Alamar Blue, read-out: IC50: I Org. promastigote Growth L. major, 2 d. The text has this: Example 108. Leishmania major Promastigote Growth Inhibition Assay
The promastigote assay is a microtiter plate drug sensitivity prescreen assay used to determine antileishmanial activity of candidate drugs against promastigote forms of L. major. (Shadow et al., PLOS Neglected Tropical Diseases, 2009, e311.) Alamar Blue, or resazurin, is a non-fluorescent indicator dye that is converted to bright red-fluorescent resorufin via the activity of mitochondrial reductases. As the activity of mitochondrial reductases is reduced in cells that are dead or dying, and the intensity of the fluorescence is relative to cell number, a test compound that kills or inhibits growth of a particular target cell, such as L. major, will result in a lower production of fluorescent signal. Pre-dosed microtiter drug plates for use in the promastigote drug prescreen assay were produced using sterile 384-well black optical bottom tissue culture plates (Nunc Cat #12-565-344). Candidate drugs were diluted in dimethyl sulfoxide in four 96-well plates to either 10,000 ng/ml or 1,000 ng/ml, and 4.25 μL of diluted drug was subsequently dispensed into each well of a 384-well plate. Duplicate 384 well plates were made at each test concentration (10,000 ng/mL and 1,000 ng/mL) and amphotericin B was used as a batch control. The Tecan EVO Freedom liquid handling system (Tecan US, Inc., Durham, N.C.) was used to produce all drug assay plates and conduct all pipetting operations for this assay. L. major parasites were cultured in Schneider's medium (Lonza Cat #04-351Q) supplemented with 20% heat inactivated FBS (Invitrogen Cat #16140-089). Promastigotes in early log growth phase were harvested from culture, counted, suspended at 1.32×10^5 cells/mF and 5,000 promastigotes were dispensed into each well of the 384 well plate in a volume of 38.8 μL. The 384 well plates were subsequently incubated at 28° C. for 44 hours. 8.4 μF of Alamar Blue (Promega, Cat #G8081) was added to each well, the plates were subsequently incubated at 28° C. and 5% CO2 for 4 hours and then examined for the relative fluorescence units (RFU) per well using the Tecan Genios Plus (Tecan US, Inc., Durham, N.C.) with excitation set at 560 nm and emission set at 590 nm. The relative fluorescence from each well was used to determine the percent growth inhibition of each candidate compound tested. Compounds with 50% or greater inhibition of growth were selected for further analysis to determine IC50 values.

Experiment [2] deals with luciferase-expressing L. major parasites developing intracellularly inside RAW 264.7 macrophages. The experiment is described as follows: Leishmania major intracellular amastigote assay in RAW 264.7 macrophages (luciferase). As to conditions: RAW264.7, 96 hours, read-out: IC50: I Org. intracellular amastigote Growth L. major, 4 d. The text has this:
Example 107. Assay for Leishmania major Intracellular Amastigote Assay in RAW 264.7 Macrophages
The intracellular amastigote assay is a microtiter plate drug sensitivity assay that uses the activity of luciferase as a measure of proliferation of luciferase-expressing L. major parasites developing intracellularly inside RAW 264.7 macrophages in the presence of antileishmanial drugs or experimental compounds. (Buckner, F. S., and A. J. Wilson. Am J Prop Med Hyg, 2005, 72(5): 600-605.) As the activity of luciferase and its associated luminescence after addition of the substrate, luciferin, is relative to parasite growth, a test compound that inhibits the growth of the parasite will result in a lower luminescence. The luciferase-expressing L. major parasite used in this assay is genetically modified by adding the luciferase coding region to the pLEXSY-hyg2 vector (Jena Biosciences). The luciferase expression construct was created by digesting the luciferase coding region (1.66 kbp) of pGL3-Basic (Promega) by using two restriction enzymes, NcoI/EagI, followed by electrophoretic separation of the luciferase coding region on a 1% agarose gel. The luciferase coding region was then ligated into pLEXSY-hyg2 vector (Jena Biosciences) which had previously been digested with NcoI/NotI. The vector was linearized with SwaI and subsequently gel purified prior to transfection into L. major parasites. Transfections were carried out by electroporation at 480V, 13Ω, and 500 μF (0.4 mL of 1×10^8 parasites/mL, and 0.1 mL of 10 μg DNA). Selection for transfectants was then carried out using hygromycin B (100 μg/mL). RAW 264.7 macrophages were cultured in DMEM media (ATCC Cat #30-2002) supplemented with heat-inactivated 10% FBS (Invitrogen Cat #10438-034). To begin the assay, macrophages were harvested from culture by removing all spent media, adding in 10 mL fresh media, scraping cells, and counted using Trypan Blue. The cells were resuspended in DMEM/10% HIFBS media at 2.0×10^5 cells/mL, and then dispensed in a volume of 50 μL to yield a final concentration of 10,000 macrophages/well in 384 well tissue-culture treated sterile white plates (Nunc Cat #12-565-343) using a Tecan EVO Freedom robotics system. The plates were then incubated at 37° C. overnight in 5% CO2 atmosphere for 24 hours. After overnight incubation, the media was removed from each well using the Tecan EVO Freedom robot, and L. major promastigotes were added to each well and allowed to invade the RAW macrophages. Promastigotes were cultured in Schneider's medium (Invitrogen Cat #11720-067) supplemented with 20% heat inactivated FBS. Metacyclic stage promastigotes provide the best invasion for this assay, and cultures should be grown to increase the percentage of metacyclic promastigotes for best results. Promastigotes were harvested from culture, counted, suspended at 2×10^6 promastigotes/mL in DMEM/HIFBS media, and 100,000 promastigotes were dispensed per well in a volume of 50 μL. After overnight incubation, the media was removed from each well using the Tecan Freedom EVO robot, and each well was subsequently washed three times with 40 μF of fresh DMEM/HIFBS medium to remove all extracellular promastigotes. After the third wash, 69.2 μF of DMEM/HIFBS medium was added to each well using the Tecan EVO Freedom robot. Drug plates were prepared with the Tecan EVO Freedom using sterile 96 well plates containing twelve duplicate two-fold serial dilutions of each test compound suspended in DMSO. 7.8 μF of diluted test compound was added to the 69.2 μF of media present in each well providing a 10 fold final dilution of compound. The final concentration range tested was 0.5 to 10,000 ng/ml for all assays. The plates were next incubated at 37° C. and 5% CO2 for 96 hours. After 96 hours of incubation, 7.5 μF of a luciferin solution (Caliper Fife Science) diluted to 150 μg/mF was added to each well, and the plates were incubated for 30 minutes at 37° C., in the dark. […]

In experiment [3] the test system is TdTomato-modified T. cruzi (CL strain) in Vero cells. The experiment is described as follows: In vitro IC50 measurement of T. cruzi amastigote killing using TdTomato-modified T. cruzi (CL strain). The following applies: Trypanosoma cruzi, 72 h, fluorescence, read-out: IC50: I Org. amastigote Growth T. cruzi CL TdTomato, 3 d. The procedure:
Example 112. In Vitro IC50 Measurement of T. cruzi Amastigote Killing Using TdTomato-Modified T. cruzi (CL Strain)
The T. cruzi parasites used in this assay were genetically modified to express Td Tomato fluorescent protein. Vero cells (African green monkey kidney epithelial cells) were harvested from continuous cultures using trypsin and added to the inner 60 wells of 96-well Greiner Bio One plates (plate catalog #655090) at 200 ul/well of […]. Cells were allowed to adhere for 1 h before infection with T. cruzi. T. cruzi for infection were harvested from previously-infected Vero cells, washed, pelleted and resuspended at 5×10^6/mL. 50 uL of parasites were added to each well containing Vero cells. Compounds were prepared from 5 mM stock concentrations in DMSO to final concentrations in wells ranging from 5 uM to 5 nM. Wells were provided for negative controls, lacking compounds. Plates were placed into a 37° C. incubator for 20 min, then a “Day 0” reading was taken on a Synergy H4 plate reader to record initial fluorescence levels, at 544 (excitation) and 612 nm (emission). 96-well plates were placed in Tupperware containers with wet paper towels and incubated at 37° C. incubator for 72 h. After 72 h plates were reread (Day 3 reading) and data analyzed using Excel and/or Graphpad software. Day 0 fluorescence was subtracted from Day 3 to remove input parasite fluorescence. Growth curves are generated and 50% and 90% inhibitory concentrations are determined by nonlinear regression analysis.

Experiment [4] has as its system bloodstream forms of T. b. rhodesiense STIB 900. The experiment is described as follows: T. brucei rhodesiense STIB 900 growth inhibition assay. The following applies: Trypanosoma brucei, 72 h, read-out: IC50: I Org. Growth T. brucei rhodesiense STIB 900, 3 d [uM]. The text has this:
Example 110. T. brucei rhodesiense STIB 900 Growth Inhibition Assay
The parasite strain used in this assay was isolated in 1982 from a human patient in Tanzania and after several mouse passages cloned and adapted to axenic culture conditions, ((a) Baltz, T., D. Baltz, C. Giroud, and J. Crockett. EMBO Journal, 1985, 4:1273-1277. (b) Thuita, J. K., S. M. Karanja, T. Wenzler, R. E. Mdachi, J. M. Ngotho, J. M. Kagira, R. Tidwell, and R. Brun. Acta Tropica 2008, 108:6-10.) Minimum Essential Medium (50 μl) supplemented with 25 mM HEPES, 1 g/l additional glucose, 1% MEM non-essential amino acids (100×), 0.2 mM 2-mercaptoethanol, 1 mM Na-pyruvate and 15% heat inactivated horse serum was added to each well of a 96-well microtiter plate. Serial drug dilutions of seven 3-fold dilution steps covering a range from 90 to 0.123 μg/ml were prepared. Then 10^4 bloodstream forms of T. b. rhodesiense STIB 900 in 50 μl was added to each well and the plate incubated at 37° C. under a 5% CO2 atmosphere for 72 h. 10 μl Alamar Blue (resazurin, 12.5 mg in 100 ml double-distilled water) was then added to each well and incubation continued for a further 2-4 h, (Raz, B., M. Iten, Y. Grether-Buhler, R. Kaminsky, and R. Brun. Acta Trap 1997, 68:139-47.) Then the plates were read with a Spectramax Gemini XS microplate fluorometer (Molecular Devices Cooperation, Sunnyvale, Calif., USA) using an excitation wave length of 536 nm and an emission wave length of 588 nm. Data were analyzed using the microplate reader software Softmax Pro (Molecular Devices Cooperation, Sunnyvale, Calif., USA).

For experiment [5], the system named is L. infantum MHOM/MA(BE)/67 amastigotes in primary peritoneal mouse macrophages. The experiment is described as follows: Leishmania infantum intracellular amastigote assay in mouse macrophages. As to conditions: Macrophage, 120 h, read-out: Inhibition of Organism Growth in Leishmania infantum MHOM/MA/BE/67, 5 d [uM]. Here is the method: Example 111. Leishmania infantum Intracellular Amastigote Assay in Mouse Macrophages
L. infantum MHOM/MA(BE)/67 amastigotes were collected from the spleen of an infected donor hamster and used to infect primary peritoneal mouse macrophages. (Kaiser, M., Maes, L., Tadoori, L. P., Spangenberg, T., Ioset, J.-R. J. Biomol. Screen. 2015 20(5), 634-35.) To determine in vitro antileishmanial activity, 3×10^4 macrophages were seeded in each well of a 96-well plate. Culture medium was RPMI-1640 supplemented with L-glutamine (20 mM), 16.5 mM sodium hydrogen carbonate, and 10% fetal calf serum (FCS). After 2 d of outgrowth, 5×10^5 amastigotes/well were added and incubated for 2 h at 37° C. Prediluted samples to be tested were subsequently added, and the plates were further incubated for 5 d at 37° C. and 5% CO2. Total parasite burdens in the well were microscopically assessed after Giemsa staining and expressed as a percentage of the total burden in the blank controls without compound. In treated wells with high amastigote burdens, an overall estimate of the total burden per well was made without discrimination between the number of infected macrophages and the number of amastigotes per infected cell. In treated wells with low burdens, exact counting was performed. The 50% inhibitory concentrations (IC50s) were then generated for each dose response test using GraphPad Prism (GraphPad Software Inc., San Diego, Calif.) using the nonlinear regression (sigmoidal dose-response/variable slope) equation.

Experiment [6] concerns Trypanosoma brucei rhodesiense STIB 900 strain. The experiment is described as follows: Trypanosoma brucei rhodesiense STIB 900 screening assay. As to conditions: 72 h, read-out: Swiss TPH T b rhodesiense IC50. The procedure: Example 114. Trypanosoma brucei rhodesiense STIB 900 Screening Assay Procedure
The Trypanosoma brucei rhodesiense STIB 900 strain was isolated in 1982 from a human patient in Tanzania and after several mouse passages cloned and adapted to axenic culture conditions (Baltz, et al., EMBO Journal 4: 1273-1277 (1985); Thuita, et al., Acta Tropica 108: 6-10 (2008)). Minimum Essential Medium (50 μL) supplemented with 25 mM HEPES, 1 g/L additional glucose, 1% MEM non-essential amino acids (100×), 0.2 mM 2-mercaptoethanol, 1 mM Na-pyruvate and 15% heat inactivated horse serum was added to each well of a 96-well microtiter plate. Serial drug dilutions of seven 3-fold steps covering a range from 90 to 0.123 μg/mL were prepared. Then 10^4 bloodstream forms of T. b. rhodesiense STIB 900 in 50 μL was added to each well and the plate incubated at 37° C. under a 5% CO2 atmosphere for 72 h. 10 μL Alamar Blue (resazurin, 12.5 mg in 100 mL double-distilled water) was then added to each well and incubation continued for a further 2-4 h (Raz, et al., Acta Tropica 68: 139-47 (1997)). Then the plates were read with a Spectramax Gemini XS microplate fluorometer (Molecular Devices Corporation, Sunnyvale, Calif., USA) using an excitation wavelength of 536 nm and an emission wavelength of 588 nm. Data were transferred into the graphic program Softmax Pro (Molecular Devices), which calculated IC50 values.

Consider `Cc1c(C(=O)Nc2ccc3c(c2)B(O)OC32CCC2)nnn1-c1ccccn1` [Example 27, N-(1-hydroxy-1H-spiro[benzo[c][1,2]oxaborole-3,1′-cyclobutan]-6-yl)-5-methyl-1-(pyridin-2-yl)-1H-1,2,3-triazole-4-carboxamide], for which the IC50 in experiment [1] is 600 to 2500 nM; in experiment [2], 1100 to 9900 nM; in experiment [3] it was less than 600 nM.

On to `COc1cccc(-n2cc(C(=O)Nc3ccc4c(c3)B(O)OC4)nn2)n1` [Example 64, N-(1-hydroxy-1,3-dihydrobenzo[c][12]oxaborol-6-yl)-1-(6-methoxypyridine-2-yl)-1H-1,2,3-triazole-4-carboxamide], for which the figures for the IC50 in experiment [4], in experiment [5] and in experiment [6] were 0.1 to 0.3 µM, less than 3 µM and less than 100 nM, respectively.
